{
  "source": "patent US9982232B2",
  "about": "“Methods of generating cells with multilineage potential” (NEWSOUTH INNOVATIONS PTY LIMITED, priority 2012, dated 2018)",
  "molecules": {"B1": {"name": "Pdgf-BB: platelet derived growth factor BB, tested with/without AZA (protein, UniProt P31240 82-190, looked up)", "Platelet-derived growth …": "SLGSLAAAEPAVIAECKTRTEVFQISRNLIDRTNANFLVWPPCVEVQRCSGCCNNRNVQCRASQVQMRPVQVRKIEIVRKKPIFKKATVTLEDHLACKCETIVTPRPVT", "modifications": "homodimer", "notes": "platelet derived growth factor BB, tested with/without AZA"}, "B2": {"name": "Hgf: hepatocyte growth factor, tested with or without AZA (protein, UniProt Q08048 33-495; Q08048 496-728, looked up)", "Hepatocyte growth factor …": "QKKRRNTLHEFKKSAKTTLTKEDPLLKIKTKKVNSADECANRCIRNRGFTFTCKAFVFDKSRKRCYWYPFNSMSSGVKKGFGHEFDLYENKDYIRNCIIGKGGSYKGTVSITKSGIKCQPWNSMIPHEHSFLPSSYRGKDLQENYCRNPRGEEGGPWCFTSNPEVRYEVCDIPQCSEVECMTCNGESYRGPMDHTESGKTCQRWDQQTPHRHKFLPERYPDKGFDDNYCRNPDGKPRPWCYTLDPDTPWEYCAIKTCAHSAVNETDVPMETTECIQGQGEGYRGTSNTIWNGIPCQRWDSQYPHKHDITPENFKCKDLRENYCRNPDGAESPWCFTTDPNIRVGYCSQIPKCDVSSGQDCYRGNGKNYMGNLSKTRSGLTCSMWDKNMEDLHRHIFWEPDASKLNKNYCRNPDDDAHGPWCYTGNPLIPWDYCPISRCEGDTTPTIVNLDHPVISCAKTKQLR", "Hepatocyte growth factor beta …": "VVNGIPTQTTVGWMVSLKYRNKHICGGSLIKESWVLTARQCFPARNKDLKDYEAWLGIHDVHERGEEKRKQILNISQLVYGPEGSDLVLLKLARPAILDNFVSTIDLPSYGCTIPEKTTCSIYGWGYTGLINADGLLRVAHLYIMGNEKCSQHHQGKVTLNESELCAGAEKIGSGPCEGDYGGPLICEQHKMRMVLGVIVPGRGCAIPNRPGIFVRVAYYAKWIHKVILTYKL"}, "B3": {"name": "bFgf: basic fibroblast growth factor, tested with or without AZA (protein, UniProt P15655 10-154, looked up)", "Fibroblast growth factor 2": "PALPEDGGAAFPPGHFKDPKRLYCKNGGFFLRIHPDGRVDGVREKSDPHVKLQLQAEERGVVSIKGVCANRYLAMKEDGRLLASKCVTEECFFFERLESNNYNTYRSRKYSSWYVALKRTGQYKLGSKTGPGQKAILFLPMSAKS"}},
  "format_in_all_cases": "cell-based, mouse",
  "key": {"[1]": {"system": "in vitro differentiated bone, cartilage and fat cells", "experiment": "CFU-F colony formation and replating of in vitro derived bone, cartilage and fat cells cultured with cytokines with and without AZA", "conditions": "for colony forming potential (CFU-F): cells maintained 12 days in MSC culture medium with supplement", "experimental": "(§1) In vitro differentiated bone, cartilage, fat and long-bone derived osteocytes were first cultured in MSC medium (αMEM+20% FCS+P/S/G) with or without 10 μM 5′Azacitidine (Tocris Biosciences) and with or without cytokine (50 or 100 ng/ml Pdgf-AA or Pdgf-BB or Pdgf-AB, 10 ng/ml bFgf, 20 ng/ml HGF, 10 ng/ml Igf-1 and 10 ng/ml Vegf for 2 days and then cultured in MSC media with or without cytokine for 10 days. In order to investigate the reprogramming cell signalling pathways, inhibitors were added to the reprogramming cocktail from day 1 and kept for 12 days. Media was refreshed every 3-4 days. At the end of day 12 cells were harvested for downstream analysis.\nCFU-Fs, oCFU-Fs, cCFU-Fs and aCFU-Fs were expanded in bulk culture after plating 10,000 cells per T75 flask. Resulting cells were split every 8 days. CFU-F and oCFU-F colonies were isolated individually using cloning cylinders (‘O” rings) (Sigma-Aldrich) and CFU-F clones (micro, small and large) and Osteocyte oCFU-F clones (micro, small and large) were pooled individually as micro (MC), small (SC) and large (LC) colonies and cultured first in T25 flask for 12 days and then from passage 2 onwards in T75 flask for 12 days. Cumulative cells numbers were calculated and plotted (log 10 scale). Micro, small and large colony's 2ry, 3ry and 4ry colony formation was evaluated by plating single cell from individual colonies into 96 well plates. In order to investigate differences in proliferative capacity of reprogrammed cells compared with primary CFU-Fs, cells were plated on RTCA resistor plate 96 (Roche Diagnostics) (200 cells/well) and recorded using XCELLigence (ACEA Biosciences) every 15 mins for 8 days.\nTo test whether lineage committed mesodermal cells could be induced to proliferate, bone marrow CFU-Fs (Colony Forming Units-Fibroblast) were harvested from mice, and following in vitro differentiation into bone, cartilage and fat cells, cultured them with different cytokines with and without AZA.\nTo assess and compare clonal vigour of replated cells, the inventors have developed a system to classify CFU-Fs based on cell number and size (Chong et al., 2011)."}, "primary osteoblasts [2]": {"system": "primary osteoblasts", "experiment": "Surface Pdgf receptor expression and signalling protein levels in primary osteoblasts", "conditions": "within 48 hours of exposure", "experimental": "Cell pellets were lysed in non-denaturing lysis buffer containing Complete Protease inhibitor cocktail (Roche) and PhosStop (Roche), followed by brief sonication using Bioruptor (Diagenode). The supernatant of the whole-cell extracts were loaded onto NuPage 4-12% Bis-Tri Gel (Life Technology) and transferred using iBlot Gel Transfer Kit (Nitrocellulose, Life Technology) according to the manufacturers instructions. Densitometry was performed using GE ImageQuant TL Software Version 7.0.\nActive Pdgf isoforms stimulate cells by binding to and activating signalling by dimerization of two distinct, but structurally related, membrane bound receptor tyrosine kinases; Pdgf receptor-α (Pdgfrα) and Pdgf receptor-β (Pdgfrβ). Pdgf-BB has a greater binding affinity for Pdgfrβ but can also bind Pdgfrα whereas Pdgf-AA interacts only with Pdgfrα. Therefore, Pdgf-AA induces αα-receptor homodimers, PDGF-AB, both αα-receptor homodimers and αβ-receptor heterodimers and Pdgf-BB, all three dimeric combinations of α and β receptors, however in vivo binding of PDGF-AB is not known. Primary osteoblasts express Pdgfrβ but not Pdgfrα. […] These included expression of Pdgf receptors α and β, and components of the Jak/Stat and Jnk/c-Jun pathways but not the PI3kinase pathway. […]"}, "primary osteoblasts [3]": {"system": "primary osteoblasts", "experiment": "Inhibitor studies: PDGF-AB/AZA mediated oCFU-F production from primary osteoblasts", "conditions": "inhibitor in reprogramming cocktail from day 1 for 12 days", "experimental": "as §1\nActive Pdgf isoforms stimulate cells by binding to and activating signalling by dimerization of two distinct, but structurally related, membrane bound receptor tyrosine kinases; Pdgf receptor-α (Pdgfrα) and Pdgf receptor-β (Pdgfrβ). Pdgf-BB has a greater binding affinity for Pdgfrβ but can also bind Pdgfrα whereas Pdgf-AA interacts only with Pdgfrα. Therefore, Pdgf-AA induces αα-receptor homodimers, PDGF-AB, both αα-receptor homodimers and αβ-receptor heterodimers and Pdgf-BB, all three dimeric combinations of α and β receptors, however in vivo binding of PDGF-AB is not known. Primary osteoblasts express Pdgfrβ but not Pdgfrα. […]"}, "[4]": {"system": "osteocytes from long bones of Pdgfrα-H2B:GFP mice", "experiment": "Reprogramming of primary osteocytes from Pdgfrα-H2B:GFP mice (CFU-F assays, flow cytometry)", "experimental": "Osteocytes were isolated from long bones of either wild-type C57BL/6 or Pdgfra-nGFP mice. The mice were sacrificed at 8-16 weeks of age. Tibias and femurs were removed, cleaned of soft tissues and transferred to ice cold PBS. Bone marrow was flushed out with 2% FCS in PBS and bones were crushed and cut into ˜200 μm-400 μm pieces using a mortar and pestle and scissors. Bone fragments were transferred into 5 ml of collagenase (Type II, 2 mg/ml) in PBS and placed on a water bath shaker at 37° C. for 30 min twice. Supernatant was collected and collagenase was inactivated with 10 ml of 2% FCS and 5 mM EDTA in PBS. Cells were collected through 40 μm cell strainer. Cells were stained for Seal, CD51, CD31, Lin/CD45 and Pdgfrα. These cells were FACS sorted for Sca1^−/CD31^−/Pdgfra-nGFP^−/Pdgfra-Protein^−/CD51^+ osteocytes. FACS sorted osteocytes and bone fragments were cultured independently in complete culture medium (DMEM+P/S/G+100 ug/ml of ascorbate+10% FCS). Cells were cultured at 37° C. and 5% CO2 in the incubator for 8-10 days. […]\nTo evaluate how primary lineage committed cells respond to PDGF-AB/AZA, the inventors harvested Lin^−, CD45^−/Sca1^−/CD31^−/Pdgfrα-nGFP^−/Pdgfrα^−/CD51^+ osteocytes from long bones of Pdgfrα-H2B:GFP mice. […] The emergence of CFU-F capacity in reprogrammed osteocytes was evaluated by replating cells for CFU-F assays from the end of day 1 onwards (FIG. 2A)."}},
  "data": [
    {"molecule": "Nc1ncn([C@@H]2O[C@H](CO)[C@@H](O)[C@H]2O)c(=O)n1", "note": "[AZA, Azacitidine, reference compound]", "values": [
      {"measurement": "serial passaging / replating of colonies", "setting": "[1]; bone, cartilage and fat cells", "result": "could not be replated at all"},
      {"measurement": "number of CFU-Fs generated at first passage", "setting": "[1]; bone, cartilage and fat cells", "result": "also generated CFU-Fs at first passage"},
      {"measurement": "surface Pdgfrα protein expression on primary osteoblasts", "setting": "primary osteoblasts [2]", "result": "Pdgfrα protein expression was evident"}
    ]},
    {"molecule": "Vegf", "values": [
      {"measurement": "number of CFU-Fs generated at first passage", "setting": "[1]; bone, cartilage and fat cells", "result": "substantially lower than with PDGF-AB"},
      {"measurement": "numbers of large colonies at first passage", "setting": "[1]; bone, cartilage and fat cells", "result": "few large colonies"},
      {"measurement": "colony forming potential (CFU-F)", "setting": "[1]", "result": "either no or limited CFU-F potential"}
    ]},
    {"molecule": "COc1cc2ncc(-c3ccccc3)nc2cc1OC", "note": "[AG1296]", "values": [
      {"measurement": "PDGF-AB/AZA mediated oCFU-F production from primary osteoblasts in presence of inhibitor", "setting": "primary osteoblasts [3]", "result": "abolished"}
    ]},
    {"molecule": "Igf-1: insulin-like growth factor-1, tested with or without AZA", "values": [
      {"measurement": "number of CFU-Fs generated at first passage", "setting": "[1]; bone, cartilage and fat cells", "result": "substantially lower than with PDGF-AB"},
      {"measurement": "numbers of large colonies at first passage", "setting": "[1]; bone, cartilage and fat cells", "result": "few large colonies"},
      {"measurement": "colony forming potential (CFU-F)", "setting": "[1]", "result": "either no or limited CFU-F potential"}
    ]},
    {"molecule": "B1", "values": [
      {"measurement": "passaging of CFU-F colonies from treated osteocytes", "setting": "[4]; 12 days treatment", "result": "could not be passaged"},
      {"measurement": "CFU-F capacity of treated osteocytes", "setting": "[4]; up to 12 days treatment", "result": "very limited CFU-F capacity"}
    ]},
    {"molecule": "B2", "values": [
      {"measurement": "number of CFU-Fs generated at first passage", "setting": "[1]; bone, cartilage and fat cells", "result": "substantially lower than with PDGF-AB"},
      {"measurement": "numbers of large colonies at first passage", "setting": "[1]; bone, cartilage and fat cells", "result": "few large colonies"},
      {"measurement": "colony forming potential (CFU-F)", "setting": "[1]", "result": "either no or limited CFU-F potential"}
    ]},
    {"molecule": "B3", "values": [
      {"measurement": "number of CFU-Fs generated at first passage", "setting": "[1]; bone, cartilage and fat cells", "result": "substantially lower than with PDGF-AB"},
      {"measurement": "numbers of large colonies at first passage", "setting": "[1]; bone, cartilage and fat cells", "result": "few large colonies"},
      {"measurement": "colony forming potential (CFU-F)", "setting": "[1]", "result": "either no or limited CFU-F potential"}
    ]}
  ]
}
